Assay results: US20090018134A1, “Compounds - 945” (AstraZeneca AB, priority 2007, published 2009)
Read-outs that look alike come from different tables or passages of the source.

Biological target: T1, mTOR (Homo sapiens, UniProt P42345)
T1 construct: FLAG; made in house
Assay: In Vitro mTOR Kinase Assay (Echo), Test (a)(ii)
Type: biochemical
How it was run: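 FLAG-tagged truncated mTOR (residues 1362-2549), expressed in HEK293 and purified via the FLAG tag, phosphorylated a biotinylated peptide over 2 hours at room temperature. EDTA stopped the reaction. Phospho-T389 was detected overnight by AlphaScreen using the p70 S6K T389 antibody with Protein A/streptavidin beads; IC50 reported.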

[1] = table of enzyme assay Test (a)(ii), read-out: Test (a)(ii) IC50

T1 sequence (P42345 1362-2549): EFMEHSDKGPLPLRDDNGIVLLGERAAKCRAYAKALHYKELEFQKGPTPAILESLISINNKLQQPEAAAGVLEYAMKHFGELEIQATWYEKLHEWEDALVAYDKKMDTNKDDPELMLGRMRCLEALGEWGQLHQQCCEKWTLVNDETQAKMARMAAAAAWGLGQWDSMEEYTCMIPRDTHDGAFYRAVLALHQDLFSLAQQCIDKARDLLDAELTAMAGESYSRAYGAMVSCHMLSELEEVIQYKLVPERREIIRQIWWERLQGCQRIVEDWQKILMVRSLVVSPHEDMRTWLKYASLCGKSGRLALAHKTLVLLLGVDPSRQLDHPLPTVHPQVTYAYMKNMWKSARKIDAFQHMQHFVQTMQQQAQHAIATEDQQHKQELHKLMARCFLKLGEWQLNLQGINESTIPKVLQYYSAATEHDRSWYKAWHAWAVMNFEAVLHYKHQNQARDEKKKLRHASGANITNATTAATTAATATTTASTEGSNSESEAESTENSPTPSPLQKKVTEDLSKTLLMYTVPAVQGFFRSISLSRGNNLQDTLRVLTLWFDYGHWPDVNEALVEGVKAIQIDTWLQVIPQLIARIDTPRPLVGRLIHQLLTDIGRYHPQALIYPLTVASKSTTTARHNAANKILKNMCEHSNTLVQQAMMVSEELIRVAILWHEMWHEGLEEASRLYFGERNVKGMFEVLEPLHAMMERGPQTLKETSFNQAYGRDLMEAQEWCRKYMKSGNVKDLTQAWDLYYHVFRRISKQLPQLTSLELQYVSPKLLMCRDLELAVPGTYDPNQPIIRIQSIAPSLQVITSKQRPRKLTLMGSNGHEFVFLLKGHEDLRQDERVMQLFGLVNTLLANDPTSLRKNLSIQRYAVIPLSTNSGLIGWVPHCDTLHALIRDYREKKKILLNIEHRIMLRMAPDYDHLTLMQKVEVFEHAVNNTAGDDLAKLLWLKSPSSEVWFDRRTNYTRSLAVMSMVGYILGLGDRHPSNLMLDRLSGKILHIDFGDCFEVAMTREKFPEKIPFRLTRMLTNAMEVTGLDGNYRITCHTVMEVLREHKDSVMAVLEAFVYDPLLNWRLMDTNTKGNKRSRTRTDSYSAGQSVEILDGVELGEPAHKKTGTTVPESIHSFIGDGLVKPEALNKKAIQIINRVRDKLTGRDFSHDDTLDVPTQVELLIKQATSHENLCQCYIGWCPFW

SMILES	IC50 [1] [nM]	IC50 (read-out: mTOR Kinase Assay (Echo)) [nM]
Cc1nc(S(=O)(=O)C2(c3cc(N4CCOC[C@@H]4C)nc(-c4ccc(NC(=O)NCCF)cc4)n3)CC2)sc1C [Example 80a, 1-[4-[4-[1-[(4,5-dimethyl-1,3-thiazol-2-yl)sulfonyl]cyclopropyl]-6-[(3S)-3-methylmorpholin-4-yl]pyrimidin-2-yl]phenyl]-3-(2-fluoroethyl)urea]	14.6	
Cc1nc(S(=O)(=O)C2(c3cc(N4CCOC[C@@H]4C)nc(-c4ccc(NC(=O)NC5CC5)cc4)n3)CC2)sc1C [Example 80b, 3-cyclopropyl-1-[4-[4-[1-[(4,5-dimethyl-1,3-thiazol-2-yl)sulfonyl]cyclopropyl]-6-[(3S)-3-methylmorpholin-4-yl]pyrimidin-2-yl]phenyl]urea]	10.3	
Cc1nc(S(=O)(=O)C2(c3cc(N4CCOC[C@@H]4C)nc(-c4ccc(NC(=O)NCCO)cc4)n3)CC2)sc1C [Example 80c, 1-[4-[4-[1-[(4,5-dimethyl-1,3-thiazol-2-yl)sulfonyl]cyclopropyl]-6-[(3S)-3-methylmorpholin-4-yl]pyrimidin-2-yl]phenyl]-3-(2-hydroxyethyl)urea]	9.21	
CNC(=O)Nc1ccc(-c2nc(N3CCOC[C@@H]3C)cc(C3(S(=O)(=O)c4nc(C)c(C)s4)CC3)n2)cc1 [Example 80d, 1-[4-[4-[1-[(4,5-dimethyl-1,3-thiazol-2-yl)sulfonyl]cyclopropyl]-6-[(3S)-3-methylmorpholin-4-yl]pyrimidin-2-yl]phenyl]-3-methylurea]	9.51	
CCNC(=O)Nc1ccc(-c2nc(N3CCOC[C@@H]3C)cc(C3(S(=O)(=O)c4nc(C)c(C)s4)CC3)n2)cc1 [Example 80e, 3-[4-[4-[1-[(4,5-dimethyl-1,3-thiazol-2-yl)sulfonyl]cyclopropyl]-6-[(3S)-3-methylmorpholin-4-yl]pyrimidin-2-yl]phenyl]-1-ethylurea]	14.3	
Cc1nc(S(=O)(=O)C2(c3cc(N4CCOC[C@@H]4C)nc(-c4ccc(NC(=O)Nc5cnn(C)c5)cc4)n3)CC2)sc1C [Example 81, 1-[4-[4-[1-[(4,5-Dimethyl-1,3-thiazol-2-yl)sulfonyl]cyclopropyl]-6-[(3S)-3-methylmorpholin-4-yl]pyrimidin-2-yl]phenyl]-3-(1-methylpyrazol-4-yl)urea]	13.7	8.13

Now from value to compound:

IC50 [1] [nM]	IC50 (read-out: mTOR Kinase Assay (Echo)) [nM]	SMILES
9.39		CNC(=O)Nc1ccc(-c2nc(N3CCOC[C@@H]3C)cc(C3(S(=O)(=O)c4ccc(F)cc4C)CC3)n2)cc1 [Example 82, 1-[4-[4-[1-(4-Fluoro-2-methylphenyl)sulfonylcyclopropyl]-6-[(3S)-3-methylmorpholin-4-yl]pyrimidin-2-yl]phenyl]-3-methylurea]
26.5		Cc1cc(F)ccc1S(=O)(=O)C1(c2cc(N3CCOC[C@@H]3C)nc(-c3ccc(NC(=O)NC4CC4)cc3)n2)CC1 [Example 82a, 3-cyclopropyl-1-[4-[4-[1-(4-fluoro-2-methylphenyl)sulfonylcyclopropyl]-6-[(3S)-3-methylmorpholin-4-yl]pyrimidin-2-yl]phenyl]urea]
7.57		Cc1cc(F)ccc1S(=O)(=O)C1(c2cc(N3CCOC[C@@H]3C)nc(-c3ccc(NC(=O)NCCO)cc3)n2)CC1 [Example 82b, 1-[4-[4-[1-(4-fluoro-2-methylphenyl)sulfonylcyclopropyl]-6-[(3S)-3-methylmorpholin-4-yl]pyrimidin-2-yl]phenyl]-3-(2-hydroxyethyl)urea]
18.5		Cc1cc(F)ccc1S(=O)(=O)C1(c2cc(N3CCOC[C@@H]3C)nc(-c3ccc(NC(=O)NCCF)cc3)n2)CC1 [Example 82c, 3-(2-fluoroethyl)-1-[4-[4-[1-(4-fluoro-2-methylphenyl)sulfonylcyclopropyl]-6-[(3S)-3-methylmorpholin-4-yl]pyrimidin-2-yl]phenyl]urea]
24.3		Cc1cc(F)ccc1S(=O)(=O)C1(c2cc(N3CCOC[C@@H]3C)nc(-c3ccc(NC(=O)NCC(F)F)cc3)n2)CC1 [Example 82d, 3-(2,2-difluoroethyl)-1-[4-[4-[1-(4-fluoro-2-methylphenyl)sulfonylcyclopropyl]-6-[(3S)-3-methylmorpholin-4-yl]pyrimidin-2-yl]phenyl]urea]
